In BindingDB's records for doi:10.1124/jpet.102.047092 (Case Western Reserve University, 2003):

Legend:
[1] = molecular target: T1, Muscarinic acetylcholine receptor M4 (Homo sapiens, UniProt P08173)
T1 sequence (P08173 whole entry): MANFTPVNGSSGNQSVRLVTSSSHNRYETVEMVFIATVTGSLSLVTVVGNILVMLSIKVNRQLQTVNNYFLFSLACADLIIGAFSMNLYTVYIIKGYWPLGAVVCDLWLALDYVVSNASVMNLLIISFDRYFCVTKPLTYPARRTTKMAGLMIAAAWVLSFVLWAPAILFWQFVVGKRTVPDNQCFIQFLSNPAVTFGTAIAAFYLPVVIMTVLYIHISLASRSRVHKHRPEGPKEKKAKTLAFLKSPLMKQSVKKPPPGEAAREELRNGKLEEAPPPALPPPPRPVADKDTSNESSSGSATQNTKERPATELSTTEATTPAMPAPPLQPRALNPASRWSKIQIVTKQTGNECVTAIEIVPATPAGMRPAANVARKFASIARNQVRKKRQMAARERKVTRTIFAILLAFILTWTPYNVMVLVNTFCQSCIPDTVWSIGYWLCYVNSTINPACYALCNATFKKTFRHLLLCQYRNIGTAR

[2] = molecular target: 5-hydroxytryptamine receptor 7 (Homo sapiens, UniProt P34969)
[3] = molecular target: Kappa-type opioid receptor (Cavia porcellus, UniProt P41144)
Mu-type opioid receptor = Mu-type opioid receptor (Homo sapiens, UniProt P35372)
[4] = molecular target: Beta-2 adrenergic receptor (Rattus norvegicus, UniProt P10608)
[5] = molecular target: Muscarinic acetylcholine receptor M3 (Homo sapiens, UniProt P20309)
[6] = molecular target: Sodium-dependent noradrenaline transporter (Homo sapiens, UniProt P23975)
D(2) dopamine receptor = D(2) dopamine receptor (Homo sapiens, UniProt P14416)
[7] = molecular target: 5-hydroxytryptamine receptor 6 (Homo sapiens, UniProt P50406)
[8] = molecular target: Gamma-aminobutyric acid receptor subunit alpha-1 (Rattus norvegicus, UniProt P62813)
[9] = molecular target: T2, Alpha-2A adrenergic receptor (Homo sapiens, UniProt P08913)
T2 sequence (P08913 whole entry): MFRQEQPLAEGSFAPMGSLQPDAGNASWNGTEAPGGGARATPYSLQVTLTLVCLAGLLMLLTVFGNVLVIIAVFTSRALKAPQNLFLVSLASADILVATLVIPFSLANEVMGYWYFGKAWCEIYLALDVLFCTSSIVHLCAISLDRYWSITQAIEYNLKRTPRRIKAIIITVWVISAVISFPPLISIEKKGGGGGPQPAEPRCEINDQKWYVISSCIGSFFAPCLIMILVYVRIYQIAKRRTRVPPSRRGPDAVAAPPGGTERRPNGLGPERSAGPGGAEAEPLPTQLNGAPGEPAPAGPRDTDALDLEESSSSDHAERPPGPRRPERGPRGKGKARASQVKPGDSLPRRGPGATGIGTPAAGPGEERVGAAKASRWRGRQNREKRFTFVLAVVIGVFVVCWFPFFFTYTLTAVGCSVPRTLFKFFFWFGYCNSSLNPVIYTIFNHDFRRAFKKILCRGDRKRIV

[10] = molecular target: T3, Alpha-1B adrenergic receptor (Homo sapiens, UniProt P35368)
T3 sequence (P35368 whole entry): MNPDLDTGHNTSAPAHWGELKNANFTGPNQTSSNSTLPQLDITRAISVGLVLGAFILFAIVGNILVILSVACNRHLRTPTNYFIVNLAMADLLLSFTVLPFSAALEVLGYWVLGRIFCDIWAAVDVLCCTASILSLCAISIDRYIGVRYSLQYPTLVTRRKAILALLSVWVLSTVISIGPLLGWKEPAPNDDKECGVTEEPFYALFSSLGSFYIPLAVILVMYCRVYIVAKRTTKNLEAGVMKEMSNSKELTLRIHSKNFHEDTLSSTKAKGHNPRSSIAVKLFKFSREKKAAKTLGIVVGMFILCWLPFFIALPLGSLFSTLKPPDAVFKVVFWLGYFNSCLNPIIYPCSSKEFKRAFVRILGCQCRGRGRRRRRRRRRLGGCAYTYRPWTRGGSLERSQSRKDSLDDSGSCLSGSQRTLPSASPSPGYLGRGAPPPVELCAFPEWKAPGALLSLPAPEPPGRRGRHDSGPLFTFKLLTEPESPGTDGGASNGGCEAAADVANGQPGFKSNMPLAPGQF

[11] = molecular target: T4, Muscarinic acetylcholine receptor M1 (Homo sapiens, UniProt P11229)
T4 sequence (P11229 whole entry): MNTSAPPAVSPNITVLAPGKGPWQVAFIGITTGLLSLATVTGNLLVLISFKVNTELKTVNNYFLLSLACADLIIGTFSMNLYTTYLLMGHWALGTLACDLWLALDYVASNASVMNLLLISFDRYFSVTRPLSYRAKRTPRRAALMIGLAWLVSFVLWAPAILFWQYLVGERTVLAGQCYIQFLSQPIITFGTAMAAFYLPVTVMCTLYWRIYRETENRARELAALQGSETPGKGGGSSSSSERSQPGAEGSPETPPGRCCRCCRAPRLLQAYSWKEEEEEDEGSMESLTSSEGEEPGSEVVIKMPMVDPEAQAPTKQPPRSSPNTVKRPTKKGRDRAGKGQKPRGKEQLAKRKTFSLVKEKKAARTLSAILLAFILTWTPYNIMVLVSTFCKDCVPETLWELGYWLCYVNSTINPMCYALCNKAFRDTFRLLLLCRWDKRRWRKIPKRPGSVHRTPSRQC

[12] = molecular target: 5-hydroxytryptamine receptor 2A (Rattus norvegicus, UniProt P14842)

Measured: Ki

Sequence of 5-hydroxytryptamine receptor 2A (P14842 whole entry): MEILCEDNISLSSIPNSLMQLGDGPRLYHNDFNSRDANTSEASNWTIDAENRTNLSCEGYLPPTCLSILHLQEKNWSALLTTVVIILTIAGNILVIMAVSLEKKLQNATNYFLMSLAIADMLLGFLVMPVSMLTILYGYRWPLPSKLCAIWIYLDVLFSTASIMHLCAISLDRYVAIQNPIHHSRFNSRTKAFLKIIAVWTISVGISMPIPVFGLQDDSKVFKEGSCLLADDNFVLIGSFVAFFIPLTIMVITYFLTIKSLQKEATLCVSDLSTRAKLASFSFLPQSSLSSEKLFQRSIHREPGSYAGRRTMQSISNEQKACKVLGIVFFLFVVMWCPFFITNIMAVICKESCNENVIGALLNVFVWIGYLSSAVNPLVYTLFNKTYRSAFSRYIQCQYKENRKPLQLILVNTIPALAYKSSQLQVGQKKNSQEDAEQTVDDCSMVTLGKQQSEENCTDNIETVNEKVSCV
Sequence of Gamma-aminobutyric acid receptor subunit alpha-1 (P62813 whole entry): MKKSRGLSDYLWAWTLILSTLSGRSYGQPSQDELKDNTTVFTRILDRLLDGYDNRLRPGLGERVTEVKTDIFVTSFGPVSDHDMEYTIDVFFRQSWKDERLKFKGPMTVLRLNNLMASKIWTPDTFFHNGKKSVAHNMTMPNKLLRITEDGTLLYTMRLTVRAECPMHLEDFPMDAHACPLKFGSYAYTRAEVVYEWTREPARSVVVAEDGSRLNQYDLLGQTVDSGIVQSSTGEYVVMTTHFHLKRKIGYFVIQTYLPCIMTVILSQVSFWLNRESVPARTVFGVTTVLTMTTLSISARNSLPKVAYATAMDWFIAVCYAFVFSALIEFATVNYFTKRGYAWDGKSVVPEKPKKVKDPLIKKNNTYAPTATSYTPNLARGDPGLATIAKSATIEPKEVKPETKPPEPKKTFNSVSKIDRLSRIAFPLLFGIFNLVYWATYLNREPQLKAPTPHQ
Sequence of Beta-2 adrenergic receptor (P10608 whole entry): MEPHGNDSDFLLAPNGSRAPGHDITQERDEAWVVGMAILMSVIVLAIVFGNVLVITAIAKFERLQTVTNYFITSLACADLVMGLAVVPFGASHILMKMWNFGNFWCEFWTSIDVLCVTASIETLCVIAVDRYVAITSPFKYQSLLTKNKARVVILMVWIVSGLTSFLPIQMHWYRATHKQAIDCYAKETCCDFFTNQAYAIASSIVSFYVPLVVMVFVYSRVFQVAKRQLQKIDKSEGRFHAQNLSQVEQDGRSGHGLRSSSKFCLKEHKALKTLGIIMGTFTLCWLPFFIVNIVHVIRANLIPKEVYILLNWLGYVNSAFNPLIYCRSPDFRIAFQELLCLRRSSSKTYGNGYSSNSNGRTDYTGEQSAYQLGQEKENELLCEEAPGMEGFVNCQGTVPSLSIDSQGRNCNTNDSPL
Sequence of 5-hydroxytryptamine receptor 6 (P50406 whole entry): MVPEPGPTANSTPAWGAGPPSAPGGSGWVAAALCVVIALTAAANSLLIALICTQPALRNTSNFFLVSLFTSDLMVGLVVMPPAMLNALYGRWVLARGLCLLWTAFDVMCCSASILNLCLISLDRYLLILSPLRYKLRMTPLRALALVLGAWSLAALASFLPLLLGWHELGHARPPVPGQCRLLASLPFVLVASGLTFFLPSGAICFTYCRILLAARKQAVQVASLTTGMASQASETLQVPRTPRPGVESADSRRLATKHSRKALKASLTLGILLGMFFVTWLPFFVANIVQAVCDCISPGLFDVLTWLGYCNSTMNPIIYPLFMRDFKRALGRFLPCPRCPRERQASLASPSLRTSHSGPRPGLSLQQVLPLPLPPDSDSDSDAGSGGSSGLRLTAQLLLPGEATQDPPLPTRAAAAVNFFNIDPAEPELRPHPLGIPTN
Sequence of Sodium-dependent noradrenaline transporter (P23975 whole entry): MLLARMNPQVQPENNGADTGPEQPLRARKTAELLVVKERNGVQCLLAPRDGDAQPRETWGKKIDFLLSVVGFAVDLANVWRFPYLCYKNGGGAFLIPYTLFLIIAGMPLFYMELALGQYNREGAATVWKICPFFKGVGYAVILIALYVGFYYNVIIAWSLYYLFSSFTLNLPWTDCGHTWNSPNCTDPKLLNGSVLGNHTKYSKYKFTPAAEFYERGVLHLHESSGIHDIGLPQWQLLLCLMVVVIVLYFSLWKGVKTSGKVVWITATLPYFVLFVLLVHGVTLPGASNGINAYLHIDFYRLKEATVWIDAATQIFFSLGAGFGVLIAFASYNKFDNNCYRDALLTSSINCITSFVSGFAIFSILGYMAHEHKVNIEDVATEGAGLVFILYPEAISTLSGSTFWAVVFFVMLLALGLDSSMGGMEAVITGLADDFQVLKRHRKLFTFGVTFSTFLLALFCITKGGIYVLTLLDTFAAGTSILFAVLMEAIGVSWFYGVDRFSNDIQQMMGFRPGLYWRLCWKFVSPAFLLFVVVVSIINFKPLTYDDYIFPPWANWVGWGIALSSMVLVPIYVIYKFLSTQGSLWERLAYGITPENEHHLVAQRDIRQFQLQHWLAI
Sequence of Kappa-type opioid receptor (P41144 whole entry): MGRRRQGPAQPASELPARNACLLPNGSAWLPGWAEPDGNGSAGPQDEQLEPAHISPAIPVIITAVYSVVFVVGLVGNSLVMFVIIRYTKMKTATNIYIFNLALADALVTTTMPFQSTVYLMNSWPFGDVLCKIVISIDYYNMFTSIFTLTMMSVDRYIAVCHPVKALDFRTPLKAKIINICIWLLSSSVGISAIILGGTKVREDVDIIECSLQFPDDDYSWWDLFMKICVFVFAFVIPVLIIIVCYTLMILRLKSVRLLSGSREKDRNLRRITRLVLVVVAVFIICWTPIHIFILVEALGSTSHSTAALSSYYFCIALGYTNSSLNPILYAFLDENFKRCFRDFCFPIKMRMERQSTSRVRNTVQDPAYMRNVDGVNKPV
Sequence of Muscarinic acetylcholine receptor M3 (P20309 whole entry): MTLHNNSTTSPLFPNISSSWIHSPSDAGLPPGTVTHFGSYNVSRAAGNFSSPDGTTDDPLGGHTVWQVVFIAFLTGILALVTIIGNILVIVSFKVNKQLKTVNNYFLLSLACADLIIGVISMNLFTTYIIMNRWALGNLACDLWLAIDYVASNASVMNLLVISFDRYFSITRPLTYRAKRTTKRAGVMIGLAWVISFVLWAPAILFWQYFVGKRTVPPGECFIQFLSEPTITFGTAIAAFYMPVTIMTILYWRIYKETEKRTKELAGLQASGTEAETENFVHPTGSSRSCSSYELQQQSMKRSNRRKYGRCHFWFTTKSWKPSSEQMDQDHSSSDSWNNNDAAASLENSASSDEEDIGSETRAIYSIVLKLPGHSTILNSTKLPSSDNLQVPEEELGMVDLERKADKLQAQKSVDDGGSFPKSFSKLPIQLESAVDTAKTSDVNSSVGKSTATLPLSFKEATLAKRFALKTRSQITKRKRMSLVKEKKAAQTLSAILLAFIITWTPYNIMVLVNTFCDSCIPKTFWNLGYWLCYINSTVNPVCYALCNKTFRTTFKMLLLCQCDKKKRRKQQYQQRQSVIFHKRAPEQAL
Sequence of Mu-type opioid receptor (P35372 whole entry): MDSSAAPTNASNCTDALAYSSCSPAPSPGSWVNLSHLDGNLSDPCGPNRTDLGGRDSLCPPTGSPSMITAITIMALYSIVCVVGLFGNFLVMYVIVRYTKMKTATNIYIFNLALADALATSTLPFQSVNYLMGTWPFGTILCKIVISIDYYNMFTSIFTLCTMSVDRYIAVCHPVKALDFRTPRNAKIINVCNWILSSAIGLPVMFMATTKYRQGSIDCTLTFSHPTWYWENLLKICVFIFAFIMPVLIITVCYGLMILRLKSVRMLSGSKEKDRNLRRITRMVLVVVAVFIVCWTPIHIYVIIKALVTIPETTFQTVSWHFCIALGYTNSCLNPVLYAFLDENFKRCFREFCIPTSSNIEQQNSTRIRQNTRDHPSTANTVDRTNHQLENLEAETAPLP
Sequence of 5-hydroxytryptamine receptor 7 (P34969 whole entry): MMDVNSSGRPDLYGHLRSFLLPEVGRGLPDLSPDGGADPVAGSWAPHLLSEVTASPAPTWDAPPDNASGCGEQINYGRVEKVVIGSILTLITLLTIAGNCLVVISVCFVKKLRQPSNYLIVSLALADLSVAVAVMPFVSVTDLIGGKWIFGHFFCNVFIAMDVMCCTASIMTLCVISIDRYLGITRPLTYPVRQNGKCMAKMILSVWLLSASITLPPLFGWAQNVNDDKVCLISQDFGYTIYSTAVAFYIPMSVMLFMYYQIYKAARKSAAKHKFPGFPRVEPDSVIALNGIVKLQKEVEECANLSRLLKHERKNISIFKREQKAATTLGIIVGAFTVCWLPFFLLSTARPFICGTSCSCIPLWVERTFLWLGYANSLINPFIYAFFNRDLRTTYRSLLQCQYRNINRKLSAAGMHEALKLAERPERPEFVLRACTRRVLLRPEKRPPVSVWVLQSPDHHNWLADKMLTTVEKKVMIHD
Sequence of D(2) dopamine receptor (P14416 whole entry): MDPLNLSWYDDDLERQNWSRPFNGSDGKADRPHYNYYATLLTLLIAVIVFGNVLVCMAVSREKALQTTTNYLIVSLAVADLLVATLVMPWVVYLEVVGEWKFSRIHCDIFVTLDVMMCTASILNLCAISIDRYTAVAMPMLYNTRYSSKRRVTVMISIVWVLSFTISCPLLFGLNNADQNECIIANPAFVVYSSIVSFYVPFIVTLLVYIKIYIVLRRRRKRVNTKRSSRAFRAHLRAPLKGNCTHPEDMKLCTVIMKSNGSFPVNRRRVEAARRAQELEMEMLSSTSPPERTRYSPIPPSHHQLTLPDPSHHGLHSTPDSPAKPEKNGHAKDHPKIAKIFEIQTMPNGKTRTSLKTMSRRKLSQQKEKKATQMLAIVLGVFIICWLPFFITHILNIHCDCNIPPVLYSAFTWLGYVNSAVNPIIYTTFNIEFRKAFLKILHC

N[C@@H](CCS(=O)(=O)O)C(=O)O (racemic)
> 10 µM: all assays above

N[C@@H]1CCSC1=O [D-homocysteine thiolactone]
> 10 µM: all assays above

N[C@H](CCS(=O)(=O)O)C(=O)O [D-homocysteic acid]
> 10 µM: all assays above

NC(CS(=O)O)C(=O)O (stereo not drawn) [CAS_109]
> 10 µM: all assays above

N[C@H]1CCSC1=O [NSC_134505]
> 10 µM: all assays above

CSCC[C@@H](N)C(=O)O [CAS_6137]
> 10 µM: all assays above

N[C@H](CS(=O)(=O)O)C(=O)O [L-cysteic acid]
> 10 µM: all assays above

N[C@@H](CS)C(=O)O [CAS_5862]
> 10 µM: all assays above

N[C@@H](CCS(=O)O)C(=O)O [L-homocysteine sulfinic acid]
> 10 µM: all assays above

NC(CSSCC(N)C(=O)O)C(=O)O (stereo not drawn) [CAS_595]
> 10 µM: all assays above

N[C@H](CCS(=O)O)C(=O)O [D-homocysteine sulfinic acid]
> 10 µM: all assays above

N[C@@H](CCS)C(=O)O (racemic) [CAS_778]
> 10 µM: all assays above
